Where two headings read alike, the source gives them in different places.
How the values were obtained:
[1] = test system: RIG-I deficient CT26 RIG-I−/− cells; assay: CXCL10 secretion by RIG-I deficient CT26 RIG-I−/− cells (ELISA); assay type: cell-based, murine; settings: compound 5 to 20 μM, 24 h
Method: (§1) The CT26 murine colon carcinoma cell line (ATCC) was used to evaluate the induction of CXCL10 secretion. CXCL10 is an important chemokine in tumor immune biology that recruits tumor-specific T cells to the tumor. To confirm that compound-mediated CXCL10 production was RIG-I specific, RIG-1 deficient CT2-RIG-I−/−cells were generated by Kineta Inc. using CRISPR technology.
(§2) CT26 cells were seeded at a density of 1×10^4 cells per well on a 96-well tissue culture plate in 100 μL of cell culture and cells were incubated at 37° C. and 5% CO2 for 24 hr. Next, CT26 cells were treated with compounds at the indicated concentrations. CXCL10 was quantified by ELISA from supernatants taken 24 h after compound stimulation by use of the CXCL10 Duo Set ELISA kit (Cat #DY466, R&D, Minneapolis, Minn., USA) according to the manufacturer's instructions.
(§3) CXCL10 secretion by CT26 cells in response to compounds (in an amount of 5 to 20 μM) of the present disclosure is shown in Table 8. The compound-induced CXCL10 production was RIG-I dependent, since none of the compounds mediated CXCL10 secretion in RIG-I deficient CT26 RIG-I−/−cells (about 0 pg/mL of CXCL10, or below the level of quantitation). The compounds (10 μM, *20 μM, **5 μM) are indicated in the table as follows: “≠” indicates less than 100 pg/mL; “+” indicates 100-199 pg/mL; “++” indicates 200-399 pg/mL; “+++” indicates 400-799 pg/mL; “++++” indicates 800 to 1599 pg/mL; “+++++” indicates greater than or equal to 1600 pg/ml.

[2] = test system: murine CT26 colon carcinoma cells; assay: RIG-I dependent CXCL10 secretion by CT26 cells (ELISA); assay type: cell-based; settings: supernatant 24 h after stimulation
Method: as §1, §2, §3

[3] = test system: IRF3 signaling pathway in THP1-Lucia™ ISG cells; assay: THP1-Lucia ISG reporter assay: induction of IRF3-dependent gene expression (secreted luciferase); assay type: cell-based, human; settings: Homo sapiens, THP1-Lucia ISG, read-out: fold increase of IRF3-dependent luciferase activity over background, THP1 ISG; for fold induction at 10 µM: 10 μM compound
Method: The compounds were evaluated in the THP1-Lucia™ ISG (interferon stimulated genes) reporter assay to determine if the compounds activate the IRF3 signaling pathway. The THP1-Lucia™ cells (InvivoGen) express the secreted luciferase (Lucia) reporter gene under the control of an IRF-inducible promoter. The reporter cell line was developed from human monocytic leukemia THP-1 cells.
The promoter was comprised of five IFN-stimulated response elements (ISRE) fused to an ISG54 minimal promoter which is unresponsive to NF-kB or AP-1 pathways. […] The IRF3-deficient THP1-Lucia™ ISG IRF3−/−reporter cell line was generated by CRISPR technology from the parent THP1-Lucia™ ISG reporter cell line.
THP1-Lucia™ ISG cells and IRF3-deficient THP1-Lucia™ ISG IRF3−/−cells were differentiated with PMA (100 ng/ml) and stimulated with compounds at the indicated concentrations (5 to 20 μM), positive control, or not treated (background). Luciferase secretion was quantified using the QUANTI-Luc luciferase assay system (InvivoGen) 18 h after stimulation. Data are shown as fold increase luciferase activity over background in Table 7 and represent the IRF3-dependent ISG54 promoter activity by the THP1-Lucia™ ISG cells in response to compounds. […] The fold increase of compounds (10 μM, *20 μM, **5 μM) induced IRF3 dependent luciferase activity is indicated as follows: “≠” indicates less than 2.4 fold increase; “+” indicates a 2.4-4.9 fold increase; “++” indicates a 5-9.9 fold increase; “+++” indicates a 10-19 fold increase; “++++” indicates a 20-39 fold increase; “+++++” indicates greater than or equal to 40 fold increase.

[4] = PMA-differentiated cells, 18 h after stimulation
[5] = 20 μM compound (*), PMA-differentiated cells, 18 h after stimulation

| SMILES | CXCL10 secretion, CT26 RIG-I−/− [1] | CXCL10 secretion, CT26 ([2]; 10 μM compound) | fold induction at 10 µM [3, 4] | CXCL10 secretion, CT26 ([2]; 20 μM compound (*)) | fold induction at 20 µM [3, 5] | fold induction at 20 µM ([3]; 18 h) | CXCL10 secretion, CT26 ([2]; 5 μM compound (**)) |
| --- | --- | --- | --- | --- | --- | --- | --- |
| O=C(Nc1nc2ccc3scnc3c2s1)c1cc2c(cc1OCCCCN1CCOCC1)OCO2 [Example 41, N-{3,10-dithia-5,12-diazatricyclo[7.3.0.0^2,^6]dodeca-1,4,6,8,11-pentaen-4-yl}-6-[4-(morpholin-4-yl)butoxy]-2H-1,3-benzodioxole-5-carboxamide] | − | + (100-199 pg/mL) | 2.4 to 4.9 |  |  |  |  |
| Cc1nc2c(ccc3nc(NC(=O)c4ccc5ccccc5c4)sc32)s1 [Example 23, N-{11-methyl-3,10-dithia-5,12-diazatricyclo[7.3.0.0^2,^6]dodeca-1,4,6,8,11-pentaen-4-yl}naphthalene-2-carboxamide] | − |  | 5 to 9.9 | +++++* (greater than or equal to 1600 pg/ml) |  |  |  |
| Cn1c(C(=O)Nc2cc3ccc4scnc4c3s2)cc2ccccc21 [Example 71, N-{5,12-dithia-3-azatricyclo[7.3.0.0^2,^6]dodeca-1,3,6,8,10-pentaen-11-yl}-1-methyl-1H-indole-2-carboxamide] |  | + (100-199 pg/mL) |  |  |  |  |  |
| O=C(Nc1nc2ccc3scnc3c2s1)c1cc2ccccc2cc1OCCN1CCOCC1 [Example 24, N-{3,10-dithia-5,12-diazatricyclo[7.3.0.0^2,^6]dodeca-1,4,6,8,11-pentaen-4-yl}-3-[2-(morpholin-4-yl)ethoxy]naphthalene-2-carboxamide] | − | +++ (400-799 pg/mL) | 20 to 39 |  |  |  |  |
| O=C(Nc1nc2ccc3scnc3c2s1)c1cc2c(cc1OCCN1CCOCC1)OCO2 [Example 40, N-{3,10-dithia-5,12-diazatricyclo[7.3.0.0^2,^6]dodeca-1,4,6,8,11-pentaen-4-yl}-6-[2-(morpholin-4-yl)ethoxy]-2H-1,3-benzodioxole-5-carboxamide] | − | ≠ (less than 100 pg/mL) | 20 to 39 |  |  |  |  |
| COc1nc2c(ccc3nc(NC(=O)c4cc5ccccc5cc4OCCCN4CCOCC4)sc32)s1 [Example 31, N-{11-methoxy-3,10-dithia-5,12-diazatricyclo[7.3.0.0^2,^6]dodeca-1,4,6,8,11-pentaen-4-yl}-3-[3-(morpholin-4-yl)propoxy]naphthalene-2-carboxamide] | − | ++ (200-399 pg/mL) | 5 to 9.9 |  |  |  |  |
| O=C(Nc1nc2ccc3scnc3c2s1)c1cccc(C(F)(F)F)c1 [Example 8, N-{3,10-dithia-5,12-diazatricyclo[7.3.0.0^2,^6]dodeca-1,4,6,8,11-pentaen-4-yl}-3-(trifluoromethyl)benzamide] | − |  |  | +* (100-199 pg/mL) | 10 to 19 |  |  |
| Cc1nc2c(ccc3nc(NC(=O)c4ccc(N(C)C)cc4)sc32)s1 [Example 6, 4-(dimethylamino)-N-{11-methyl-3,10-dithia-5,12-diazatricyclo[7.3.0.0^2,^6]dodeca-1,4,6,8,11-pentaen-4-yl}benzamide] | − | ++ (200-399 pg/mL) | 10 to 19 |  |  |  |  |
| O=C(Nc1nc2ccc3scnc3c2s1)c1ccc2sccc2c1 [Example 14, N-{3,10-dithia-5,12-diazatricyclo[7.3.0.0^2,^6]dodeca-1,4,6,8,11-pentaen-4-yl}-1-benzothiophene-5-carboxamide] | − |  | 10 to 19 | ++* (200-399 pg/mL) |  |  |  |
| O=C(Nc1nc2ccc3scnc3c2s1)c1ccc2c(c1)CCCC2 [Example 13, N-{3,10-dithia-5,12-diazatricyclo[7.3.0.0^2,^6]dodeca-1,4,6,8,11-pentaen-4-yl}-5,6,7,8-tetrahydronaphthalene-2-carboxamide] | − | +++ (400-799 pg/mL) |  |  |  | 5 to 9.9 |  |
| CCN(CCO)CCOc1cc2ccccc2cc1C(=O)Nc1nc2ccc3scnc3c2s1 [Example 45, N-{3,10-Dithia-5,12-diazatricyclo[7.3.0.0^2,6]dodeca-1,4,6,8,11-pentaen-4-yl}-3-{2-[ethyl(2-hydroxyethyl)amino]ethoxy}naphthalene-2-carboxamide carboxamide] | − | +++ (400-799 pg/mL) | 10 to 19 |  |  |  |  |
| CSc1nc2c(ccc3nc(NC(=O)c4cc5ccccc5cc4OCCN4CCOCC4)sc32)s1 [Example 35, N-[11-(methylsulfanyl)-3,10-dithia-5,12-diazatricyclo[7.3.0.0^2,^6]dodeca-1,4,6,8,11-pentaen-4-yl]-3-[2-(morpholin-4-yl)ethoxy]naphthalene-2-carboxamide] | − |  | 5 to 9.9 | ++* (200-399 pg/mL) |  |  |  |
| O=C(Nc1nc2ccc3scnc3c2s1)c1ccc2occc2c1 [Example 15, N-{3,10-dithia-5,12-diazatricyclo[7.3.0.0^2,^6]dodeca-1,4,6,8,11-pentaen-4-yl}-1-benzofuran-5-carboxamide] | − | ++ (200-399 pg/mL) |  |  | 2.4 to 4.9 |  |  |
| O=C(Nc1nc2ccc3scnc3c2s1)c1cc2ccccc2cc1OCCN1CC2CC1CO2 (stereo not shown) [Example 33, N-{3,10-dithia-5,12-diazatricyclo[7.3.0.0^2,^6]dodeca-1,4,6,8,11-pentaen-4-yl}-3-(2-{2-oxa-5-azabicyclo[2.2.1]heptan-5-yl}ethoxy)naphthalene-2-carboxamide] | − | ++++ (800 to 1599 pg/mL) |  |  | 10 to 19 |  |  |
| CCc1nc2c(ccc3nc(NC(=O)c4ccc5ccccc5c4)sc32)s1 [Example 18, N-{11-ethyl-3,10-dithia-5,12-diazatricyclo[7.3.0.0^2,^6]dodeca-1,4,6,8,11-pentaen-4-yl}naphthalene-2-carboxamide] | − |  | 20 to 39 | +* (100-199 pg/mL) |  |  |  |
| O=C(Nc1nc2ccc3scnc3c2s1)c1cc2ccccc2cc1OCCN1CC2(COC2)C1 [Example 34, N-{3,10-dithia-5,12-diazatricyclo[7.3.0.0^2,^6]dodeca-1,4,6,8,11-pentaen-4-yl}-3-(2-{2-oxa-6-azaspiro[3.3]heptan-6-yl}ethoxy)naphthalene-2-carboxamide] | − |  | 2.4 to 4.9 |  |  |  | +++** (400-799 pg/mL) |
| O=C(Nc1nc2ccc3scnc3c2s1)c1cc2ccccc2s1 [Example 11, N-{3,10-dithia-5,12-diazatricyclo[7.3.0.0^2,^6]dodeca-1,4,6,8,11-pentaen-4-yl}-1-benzothiophene-2-carboxamide] | − | ++ (200-399 pg/mL) | 2.4 to 4.9 |  |  |  |  |
| O=C(Nc1nc2ccc3scnc3c2s1)c1cc2ccccc2cc1OCCN1CCCCC1 [Example 25, N-{3,10-dithia-5,12-diazatricyclo[7.3.0.0^2,^6]dodeca-1,4,6,8,11-pentaen-4-yl}-3-[2-(piperidin-1-yl)ethoxy]naphthalene-2-carboxamide] | − | ++ (200-399 pg/mL) | 2.4 to 4.9 |  |  |  |  |

From patent US20200055871A1, “ACTIVATORS OF THE RETINOIC ACID INDUCIBLE GENE "RIG-I" PATHWAY AND METHODS OF USE THEREOF” (Kineta Immuno-Oncology LLC, priority 2018, published 2020)
